# According to PMC5964033 (Journal of inorganic biochemistry, 2018):
# “And” between values parts separate entries of the source, which are not always exact repeats. Equal entries are not always repeated. “Also recorded” adds a separate entry of the source. Where two headings read alike, the source gives them in different places.
# T1: CYP2J2 (Homo sapiens, UniProt P51589)
# T1 sequence (P51589 1-502): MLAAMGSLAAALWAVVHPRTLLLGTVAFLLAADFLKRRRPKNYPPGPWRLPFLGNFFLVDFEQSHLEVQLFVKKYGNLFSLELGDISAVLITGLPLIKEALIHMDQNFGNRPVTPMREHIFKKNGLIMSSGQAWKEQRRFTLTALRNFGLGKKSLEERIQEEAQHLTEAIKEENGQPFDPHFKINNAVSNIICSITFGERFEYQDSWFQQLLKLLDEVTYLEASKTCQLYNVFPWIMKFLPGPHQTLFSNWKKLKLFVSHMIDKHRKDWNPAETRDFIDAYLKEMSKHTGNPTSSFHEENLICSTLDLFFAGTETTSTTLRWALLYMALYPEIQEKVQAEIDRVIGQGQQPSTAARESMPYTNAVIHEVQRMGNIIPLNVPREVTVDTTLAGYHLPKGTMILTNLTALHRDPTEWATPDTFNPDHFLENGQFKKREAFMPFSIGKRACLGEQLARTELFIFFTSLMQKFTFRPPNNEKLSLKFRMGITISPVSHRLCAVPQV
# Key:
# CYP2J2 [1] = molecular target: T1, CYP2J2; details: at saturating concentrations, CYP2J2-NDs
# CYP2J2 [2] = molecular target: T1, CYP2J2; assay type: in vitro ADME
# CYP2J2 [3] = molecular target: T1, CYP2J2; experiment: Inhibition of CYP2J2-mediated AEA metabolism by pCBs; assay type: biochemical; details: for Type of AEA Metabolism Inhibition / Ki: 30 µM pCB; for Type of AEA Metabolism Inhibition: model of inhibition; for Ki: CYP2J2-ND/CPR; for apparent Vmax of AEA metabolism, % of the uninhibited enzyme: in the presence of 30 µM pCB
# CYP2J2 [4] = molecular target: T1, CYP2J2; experiment: Identification of pCB metabolites formed by CYP2J2; assay type: in vitro ADME; details: major mono-oxygenated product(s) of CYP2J2 metabolism
# CYP2J2 [5] = molecular target: T1, CYP2J2; details: formation of mono-oxygenated product; for Vmax: 5–60 µM pCB, 30 min, 37°C
# [6] = system: fatty acid amide hydrolase (FAAH); details: cited from earlier work
# CYP2J2 [7] = molecular target: T1, CYP2J2; experiment: biochemical
# Rhesus monkeys = details: cited from earlier work
# humans = details: cited from earlier work
# CYP2J2 [8] = molecular target: T1, CYP2J2; details: directly from Soret titration or through inhibition of ebastine binding
# other animal models = details: cited from earlier work
# not read [9] = substrate: CCCCC/C=C\C/C=C\C/C=C\C/C=C\CCCC(=O)NCCO; experiment: not read; assay type: in vitro ADME; details: other: total EET-EAs formed, CYP2J2-ND/CPR; pH 7.4
# not read [10] = substrate: CCCCCc1cc(O)c(C/C=C(\C)CCC=C(C)C)c(O)c1; experiment: not read; details: other: formation of mono-oxygenated product; pH 7.4; 37.0 °C
# [11] = read-out: Ki, AEA Metabolism Inhibition
Molecule,high-spin shift (CYP2J2 [1]),Type of AEA Metabolism Inhibition (CYP2J2 [3]),"Ki (CYP2J2 [3]; Ki, AEA Metabolism Inhibition) [µM]","apparent Vmax of AEA metabolism, % of the uninhibited enzyme (CYP2J2 [3])",Metabolite(s) (CYP2J2 [4]),Vmax (CYP2J2 [5]),also measured
"CCCCC/C=C\C/C=C\C/C=C\C/C=C\CCCC(=O)NCCO [AEA, anandamide]",did not produce a significant change in the high-spin content,,,,,,"Metabolite(s) (CYP2J2 [2]; AEA metabolism by CYP2J2-NDs): EET-EAs; Vmax (CYP2J2 [2]; total EET-EAs formed, CYP2J2-ND/CPR): 135 ± 14.0 pmol · min^−1 · nmolCYP2J2^−1 and 135 ± 14 pmol · min^−1 · nmolCYP2J2^−1"
"CCCCCc1cc(O)c2c(c1)OC(C)(CCC=C(C)C)C=C2 (stereo not drawn) [CBC, cannabichromene]",did not produce a significant change in the high-spin content,Noncompetitive,21.1 ± 1.4,20–45%,-1”-OH,371 ± 134 pmol · min^−1 · nmolCYP2J2^−1,
"C=C(C)[C@@H]1CCC(C)=C[C@H]1c1c(O)cc(CCCCC)cc1O [CBD, cannabidiol, reference compound]",32%,Noncompetitive,16.9 ± 1.1,20–45%,-7-OH + -1”-OH,372 ± 100 pmol · min^−1 · nmolCYP2J2^−1,inhibition of FAAH [6]: weakly inhibited; Kd (CYP2J2 [7]): 11.5 ± 3 µM
"CCCCCc1cc(O)c(C/C=C(\C)CCC=C(C)C)c(O)c1 [CBG, cannabigerol]",48%,competitively; also recorded: Competitive,10.8 ± 1.4,,-1”-OH,123 ± 14 pmol · min^−1 · nmolCYP2J2^−1,Kd (CYP2J2 [7]): 11.1 ± 1.2 µM
"CCCCCc1cc(O)c2c(c1)OC(C)(C)c1ccc(C)cc1-2 [CBN, cannabinol]",38%,Noncompetitive,19.4 ± 2,20–45%,-1’-OH or -11-OH,,
"CCCCCc1cc(O)c2c(c1)OC(C)(C)[C@@H]1CC=C(C)C[C@@H]21 [Δ8-THC, Δ8-tetrahydrocannabinol]",did not produce a significant change in the high-spin content,Noncompetitive,,20–45%,-1’-OH,80.9 ± 14.3 pmol · min^−1 · nmolCYP2J2^−1,Ki (CYP2J2 [3]; [11]): 20.2 ± 1.9 µM; Km (CYP2J2 [5]): 8.52 ± 5.3 µM
CCCCC(O)c1cc(O)c2c(c1)OC(C)(C)C1CC=C(C)CC21 (stereo not drawn) [Δ8-THC-1’-OH],,,,,,,induction of behavioral changes associated with cannabis use (Rhesus monkeys): least effective
"CCCCCc1cc(O)c2c(c1)OC(C)(C)[C@@H]1CCC(C)=C[C@@H]21 [Δ9-THC, Δ9-tetrahydrocannabinol, reference compound]",did not produce a significant change in the high-spin content,Noncompetitive,,20% and 20–45%,-1’-OH,211 ± 28 pmol · min^−1 · nmolCYP2J2^−1,effect on heart rate in humans (humans): induces tachycardia; binding affinity (CYP2J2 [8]): weakest; Ki (CYP2J2 [3]; [11]): 9.86 ± 0.45 µM; effect on heart rate in other animal models (other animal models): induces bradycardia; Km (CYP2J2 [5]): 11.9 ± 4.8 µM
CYP2J2 (Homo sapiens) (protein) MLAAMGSLAAALWAVVHPRTLLLGTVAFLLAADFLKRRRPKNYPPGPWRLPFLGNFFLVDFEQSHLEVQLFVKKYGNLFSLELGDISAVLITGLPLIKEALIHMDQNFGNRPVTPMREHIFKKNGLIMSSGQAWKEQRRFTLTALRNFGLGKKSLEERIQEEAQHLTEAIKEENGQPFDPHFKINNAVSNIICSITFGERFEYQDSWFQQLLKLLDEVTYLEASKTCQLYNVFPWIMKFLPGPHQTLFSNWKKLKLFVSHMIDKHRKDWNPAETRDFIDAYLKEMSKHTGNPTSSFHEENLICSTLDLFFAGTETTSTTLRWALLYMALYPEIQEKVQAEIDRVIGQGQQPSTAARESMPYTNAVIHEVQRMGNIIPLNVPREVTVDTTLAGYHLPKGTMILTNLTALHRDPTEWATPDTFNPDHFLENGQFKKREAFMPFSIGKRACLGEQLARTELFIFFTSLMQKFTFRPPNNEKLSLKFRMGITISPVSHRLCAVPQV,,,,,,,Km (not read [9]): 30.9 ± 7.3 µM; Km (not read [10]): 8.27 ± 3.24 µM
